The values that follow come from US4665058A, “Compositions and method of treatment for sickle cell anemia” (The University of Kentucky Research Foundation, priority 1985, dated 1987).

One data set deals with experimental animals. The conditions noted are these: micromolar levels; cited from earlier work.
In data set [1] the test system is sickle red blood cells. The conditions noted are these: cited from earlier work.
For data set [2] the following is noted: at appropriate levels in the blood stream; cited from earlier work.
Data set [3] relates to sickle red blood cells. The data set can be described thus: Inhibition of sickling induced by deoxygenation in vitro (whole blood of sickle cell disease patients, phase microscopy). The data set is classed as cell-based, human. As to conditions: 12.5 μM, 37° C. The procedure:
Whole blood was obtained from several volunteer sickle cell disease patients and was stored for several days at 4° C. […] Instead, whole blood was diluted into pre-warmed (37° C.) isotonic phosphate-buffered saline (± phlorizin benzylazide, 12.5 μM) which was then deoxygenated by continuous passage of an 100% Argon stream (1 liter/min) over a rotating thin film of the suspended cells. Aliquots were periodically taken, without O2 exposure, and fixed in 1% glutaraldehyde. These samples were then examined under phase microscopy for the degree of sickling by counting fields of at least 100 cells using a single blind, experimental protocol.
The data shown in FIG. 4 illustrate that without phlorizin benzylazide present, about 35-40% of the cells from these patients assumed the typical sickle shape (only cells having a 3:1, length:width ratio were considered to be sickled); whereas, with the phlorizin benzylazide, the deoxygenation caused a maximum increase of 5% more than the 10% of cells already sickled at zero time. Actually, the effect of phlorizin benzylazide is even more dramatic. […] The 10-15% sickled cells present at zero time are probably the so-called irreversibly sickled cells (ISC).

The subject of the next data set is human red blood cells. The data set can be described thus: Red cell swelling / mean cell volume (Coulter Counter). It is filed as cell-based. As to the method: (§1) Human red blood cells were obtained by venepuncture into Na citrate or EDTA vacutainers. They were used directly or stored in serum at 4° C. for various times. Serum and leucocytes were removed by siphoning and the settled red blood cells were washed once and finally made to a 0.15% suspension with isotonic NaCl containing 5 mM KH2 PO4 (pH 6.2). These cells were kept at 2° C. for selected periods of time during a first incubation. From this point on, all experiments were performed in subdued light to protect the light-sensitive phlorizin benzylazide. The phlorizin benzylazide obtained from the synthesis described above was added at the desired concentrations, and during this variable temperature second incubation (2°-4° C. in presence of phlorizin benzylazide), the turbidity of the cell suspension was monitored at 610 nm with a continuously recording spectrophotometer to measure hemolysis. A relatively constant level of absorbance of light indicates decreased hemolysis occurring at the lower dosage and this was verified by concomitant counting of cells with a hemacytometer. Some typical data are shown in FIG. 1 showing the change in absorbance of light (note axis A) when the drug was added (at zero time).
In these experiments (n=2) red cells had been stored in serum for 30 hours, and experienced a first incubation for 60 min at 4° C. and a second incubation with 12.5 μM phlorizin benzylazide at 4° C. for 5 and 10 min. […] The Coulter Counter, an automated instrument which determines the number and volume of cells passing through an analysis chamber, was used to make these measurements.

Data set [4] can be described thus: Absorption and elimination of tritiated compound in rats (blood tritium after intraperitoneal injection). It is filed as in vivo. As to conditions: for Cmax: rat approx. 450 g, read-out: peak concentration in the blood. The procedure: (§2) An animal study was then conducted to determine the absorption and elimination and characteristics of the phlorizin benzylazide and the resulting level of safety. Three adult rats of approximately 450 grams each were injected intraperitoneally at zero time in 1, 2 and 3 mg doses of tritiated phlorizin benzylazide (875,000 cpm/mg). Thereafter, serial tail blood samples were taken at varying times and analyzed for tritium. Maximal absorption of the compound from the peritoneal compartment was slow (note FIG. 5) and maximum blood level concentrations were obtained only after about 20 hours. The initial very rapid entry and elimination of a small fraction of the radioactivity was probably tritiated H2 O and other radioactive impurities. […] The absorption rate constant was estimated to be 0.07 hr^-1. […] This feature could, of course, offer advantages for therapy in a sickle cell crisis wherein long term effectiveness is desired.

Data set [5] in a line: Hemolysis of normal human red blood cells (turbidity at 610 nm). The data set is classed as cell-based. As to conditions: human, red blood cells, cells 2 hours old, 30 min incubation, approx. 4° C., within 700 sec, n=4. The procedure: as §1
(§3) The dose-response curve of phlorizin benzylazide acting as a hemolytic agent of normal cells is shown in FIG. 3 and the following table:
(§4) In FIG. 3, potency is expressed as the ratio, % hemolysis/t1/2, where t1/2 represents the time (seconds) required to achieve 50% of the total hemolysis produced by the particular concentration of the compound within the time of our measurements (700 sec). The cells used for these experiments were 2 hours old, and subjected to an incubation for 30 minutes before the addition of phlorizin benzylazide and continuing thereafter at approximately 4° C. (n=4). […] Thus, this blood level concentration provides anti-sickling action by reducing the concentration of hemoglobin S with an influx of water and/or salt into the cells. Further, this is accomplished with little or no red blood cell lysis and, therefore, minimum adverse side effects.

The subject of data set [6] is normal human red blood cells. The description is as above. As to conditions: for t1/2 (time required to achieve 50% of the total hemolysis): approx. 4° C., n=4. It is filed as cell-based. The procedure:
as §1, §3, §4

A short description of data set [7]: Safety observation in rats (behavior, gross examination, histology). It is filed as in vivo. As to the method:
as §2

The next data set has as its system sugar transporter. The data set can be described thus: Interaction with the sugar (glucose) transporter of human red blood cells. The data set is classed as biochemical. From the text:
(§5) From the above, it is clear that a need exists for a safe, effective and clinically useful compound for the treatment of sickle cell anemia. […] After allowing the compound to associate with its specific membrane receptor, activation with light was expected to result in relatively specific, covalent, irreversible labeling of the transporter.

Data set [8] deals with normal human red blood cells. The data set can be described thus: Initial photoaffinity-labeling experiments: effect on red blood cells before illumination. It is filed as cell-based. The conditions noted are these: isotonic buffer; time and drug dose-dependent.
Description: as §5

The next data set concerns sickle patients. The conditions noted are these: low sodium diet; cited from earlier work.
The mark [9] stands for this setting: 12.5 μM, 4° C., 5 and 10 min, n=2 (FIG. 2).
[10] abbreviates: 16 (head: κ M) phlorizin benzylazide.
Setting [11] is: 31 (head: κ M) phlorizin benzylazide.
The mark [12] stands for this setting: 62 (head: κ M) phlorizin benzylazide.

Read-outs that look alike come from different tables or passages of the source. Positions of bridges follow the written chain, without caps; N, C: chain ends. No end group written: not given here.

Consider `CC[C@@]1([C@@H]2O[C@@H]([C@H]3O[C@@](O)(CO)[C@H](C)C[C@@H]3C)C[C@@H]2C)CC[C@H]([C@]2(C)CC[C@]3(C[C@H](O)[C@@H](C)[C@@H]([C@@H](C)[C@@H](OC)[C@H](C)C(=O)O)O3)O2)O1` [Monensin], for which, in the data set on experimental animals, the toxicity entry is “highly toxic”. For the same compound, the “deformability of the red blood cell” value in the data set with sickle red blood cells [1] is on record as “some improvemement in the deformability of the red blood cell”.

As to `O=C(CCc1ccc(O)cc1)c1c(O)cc(O)cc1O` [phloretin], the toxic effects entry in data set [2] was “toxic effects at all sites in the body”.

As to `[N-]=[N+]=Nc1ccc(Cc2c(O)cc(O[C@@H]3O[C@H](CO)[C@@H](O)[C@H](O)[C@H]3O)c(C(=O)CCc3ccc(O)cc3)c2O)cc1` [phlorizin benzylazide], in the data set with sickle red blood cells [3] (100% Argon), the “cell shape on deoxygenation” value is given as “a uniform spherocytosis was induced in most cells”. The “maximum increase of sickled cells on deoxygenation, over the 10% already sickled at zero time” value in the data set on sickle red blood cells [3] (100% Argon, without compound about 35-40% sickled (FIG. 4)) stood at 5%. In the data set with sickle red blood cells [3] (Example 2), the “hemolysis in the deoxygenation experiment” value is recorded as “no significant hemolysis”. Further, the “lysis during swelling experiment” value with human red blood cells (setting [9]) was “essentially no lysis”. For the same compound, the mean cell volume entry with human red blood cells (setting [9]) is reported as “a time dependent increase in mean cell volume”. Besides, in the data set on human red blood cells (low phlorizin benzylazide levels, approx. 4° C.), the cell swelling result was “cell swelling occurred”. Also, the Cmax worked out at 2.5 µM in [4] (intraperitoneal, 1 mg); 5.1 µM in data set [4] (intraperitoneal, 2 mg); 6.3 µM in data set [4] (intraperitoneal, 3 mg). Further, in data set [4] (rat, intraperitoneal), the elimination process result is on record as “first order process”. The “mean half life (elimination)” value in data set [4] (rat, intraperitoneal) was determined as 75 h. Besides, the “maximal absorption from the peritoneal compartment” value in [4] (rat, intraperitoneal (FIG. 5)) is “slow”. Besides, the “time of maximum blood level concentration” value in [4] (rat, intraperitoneal, 1, 2 and 3 mg) was “about 20 hours”. In data set [4] (rat, intraperitoneal, estimated), the absorption rate constant was 0.07 h⁻¹. The hemolysis at 4 µM in [5] (4 (head: κ M) phlorizin benzylazide) came out at 0%. The hemolysis at 8 µM in [5] (8 (head: κ M) phlorizin benzylazide) was 0%. Also, the hemolysis at 16 µM in [5] (setting [10]) came to 31 ± 8.6%. In data set [5] (setting [11]), this compound had a hemolysis at 31 µM of 41 ± 9.6%. The compound further yielded a hemolysis at 62 µM in data set [5] (setting [12]) of 66 ± 8%. Also, the entries for the “t1/2 (time required to achieve 50% of the total hemolysis)” value in data set [6] (setting [10]), in data set [6] (setting [11]) and in data set [6] (setting [12]) were 7.5 min, 4.33 min and 3.88 min, respectively. In addition, in data set [6] (concentrations below 10 μM), the cell lysis entry is given as “no cell lysis was observed”. Besides, the “cell lysis, extent and rate (FIG. 1)” value in data set [6] (higher vs lower level of phlorizin benzylazide, 2°-4° C.) was “a greater percentage of cell lysis (an absorbance of 0.087 represents 100% lysis) but the rate at which the cells burst was much faster”. Further, the “gross examination of all tissues” value in data set [7] (rat, 1, 2 and 3 mg intraperitoneal) is listed as “unremarkable”. The behavioral abnormalities result in data set [7] (rat, 1, 2 and 3 mg intraperitoneal, 5 days (lowest dosage) or 7 weeks) was “None of the animals exhibited any unusual behavioral abnormalities”. The “histological examination of the liver and kidney” value in data set [7] (rat, two older animals (7 weeks)) is “no pathology”. Also, in the data set on sugar transporter (subdued light), the “affinity for the sugar transporter” value is “high, but reversible”. Besides, in the data set on sugar transporter (sugar transporter), the “inhibition of the transfer mechanism” value was “potent inhibitor”. In addition, in [8], the “effect on red blood cells before illumination” value was “the red blood cells were found to swell and, in a time and drug dose-dependent manner, burst even in an isotonic buffer”.

As to “anti-diuretic hormone: anti-diuretic hormone given to sickle patients on a low sodium diet to reduce plasma Na+-osmolality (CYFQNCPRG-NH2; disulfide 1-6; UniProt P01185 20-28, looked up)”, the “clinical success (reduction of plasma Na+ osmolality / cell hemoglobin S concentration)” value with sickle patients is reported as “very limited success”.
